Data: patent US4939133A, “N-substituted-2-hydroxy-α-oxo-benzeneacetamides and pharmaceutical compositions having activity as modulators of the arachidonic acid cascade” (Warner-Lambert Company, priority 1985, dated 1990)

Biological target: Human Leukocyte Lipoxygenase
Assay: Human Leukocyte Lipoxygenase Assay (LDA-H / LDAH)
Format: biochemical
Settings: 50% reduction of reaction rate vs control, E -number means X 10^-no.
Description: Human Leukocyte Lipoxygenase Assay (LDA-H)
Whole blood is collected from normal volunteers and spun in a refrigerated centrifuge for four minutes at 1°-6° C. at 3800 g. The buffy coat is manually separated and washed twice with chilled 0.83% NH4 Cl and centrifuged at 1000 RPM for ten minutes at 4° C. The white cell is suspended in culture media-EMEM supplemented with 6% Agamma human serum, tricine buffer, and neomycin and recentrifuged at 1000 g to yield a pellet containing the leukocytes used for the preparation of the acetone pentane powder.
The acetone-pentane powder is prepared utilizing a modification of the procedure reported for human platelet lipoxygenase. See Siegel, et al, Arachidonate Metabolism via Lipoxygenase and 12-L-hydroperoxy-5-Eicostetraenoic acid Peroxidase Sensitive to Antiinflammatory Drugs, Proc. Natl. Acad. Sci., USA 77:308, 1980 and D. P. Wallach and V. R. Brown, a novel Preparation of Human Platlet Lipoxygenase, Biochem. Biophys. Acta. 663:361, 1981. Buffy coat prepared above is resuspended in 5-7 volumes of cold 0.1M Tris buffer, pH 7.4 containing 0.154M NaCl. The suspension is centrifuged at 13,300 g for ten minutes at 4° C. The resultant pellet was retained, resuspended in five volumes of cold acetone, recentrifuged at 13,300 g and resuspended in five volumes of cold pentane. The pentane suspension is centrifuged for ten minutes at 13,300 g to give a pellet which is dried in the cold under vacuum with periodic pulverization. The dry powder is stable for several weeks when stored at -88° C.
Enzyme stock solution is prepared in the following manner. About 15 mg of the acetone-pentane powder sis suspended in 4 ml of cold tris buffer (0.1M, pH 7.4), allowed to stand for five minutes, and homogenized thorougly. The homogenate is sonicated three times for 15 seconds each time, diluted to 7 ml with cold tris buffer (0.1M, pH 7.4), and centrifuged at 4° C. for 60 minutes at 13,300 g. The supernatent is retained and diluted to a total of 10 ml with cold tris buffer (0.1M, pH 7.4) to give the stck enzyme solution. Additional dilutions of 2-50 fold are done as necessary to locate optimal enzyme reaction rate in the assay described below.
Substrate solution is prepared at 100 μM or 1.0 μM concentrations of arachidonic acid or linoleic acid in 0.1M tris buffer, pH 9.0 containing 20% ethanol.
The enzyme reaction is followed spectrophotometrically by the appearance of a conjugated diene product at 234 nm. The reaction is monitored at 24° C. using a Gilford Model 2600 spectrophotometer. […] The effects of inhibitors on the reaction are compared with control reactions run under indentical conditions. Routinely, each compounds of the present invention is incubated with the enzyme for five minutes prior to addition of substrate to initiate the reaction. Inhibition expressed as IC50 as molar concentration of the compound required to reduce reaction rate to 50% control.

For `COc1ccc(CCc2ccc(NC(=O)c3ccc(C)cc3O)cc2)cc1OC` [Example 46, N-[4-[2-(3,4-Dimethoxyphenyl)ethyl]phenyl]-2-hydroxy-4-methylbenzamide], the IC50 was 14 µM.
